Assay results published in US20100286247A1, “Methods of Protection from Oxidative Stress” (Trustees of Boston University, priority 2005, published 2010).
{P} = phosphate

What was measured:
total p53 protein = experiment: Western blot of total p53 (DO-1); assay type: cell-based, human; conditions: by 36-48 hours, sustained through 72 hours; 40 μM TO, 100 μM pTT
Method: (§1) Western blot analysis of proteins from cells treated and harvested in parallel with DCF time course studies was conducted as described above. Membranes were reacted with antibodies to total p53/DO-1 (1:1000 dilution, Oncogene Research Products, Cambridge, Mass.), anti-phoso-p53 (Ser-15) (1:1000 dilution, Cell Signaling Technology, Beverly, Mass.), and p21/Cip1/Waf1 (1:500 dilution, Transduction Laboratories, Lexington, Ky.), followed by appropriate secondary antibodies diluted 1:2000.

phospho-p53 (Ser-15) = experiment: Western blot of activated p53 (serine-15 phosphorylation); assay type: cell-based, human; conditions: by 36-48 hours, sustained through 72 hours; 40 μM TO, 100 μM pTT
Method: as §1

p21/Cip1/Waf1 protein = experiment: Western blot of p21/Cip1/Waf1; assay type: cell-based, human; conditions: by 36-48 hours, sustained through 72 hours; 40 μM TO, 100 μM pTT
Method: as §1

melanoma tumors = conditions: SCID mouse model; cited from earlier work
tumor formation = conditions: nude mice repeatedly exposed to solar simulated UV; cited from earlier work
SOD2 mRNA = experiment: Northern blot analysis of antioxidant enzyme mRNA: SOD2; assay type: cell-based, human; conditions: 100 μM pTT, 8-72 hours, three donors
Method: (§2) Cell culture followed previously published methods.^92 Primary human newborn dermal fibroblasts were cultured from neonatal circumcised foreskin specimens. The skin samples were treated overnight in a 0.25% trypsin solution at 4° C. to separate the epidermis from the dermis. The separated dermis was then cut into pieces and plated onto etched plastic tissue culture dishes. Primary culture medium consisted of DMEM supplemented with 10% bovine CS, 50 U/ml penicillin and 50 μg/ml streptomycin sulfate. […] Secondary culture medium consisted of DMEM supplemented with 10% CS.
(§3) Purified 5′-phosphorylated thymidine dinucleotides (pTT) (Midland Certified Reagents, Inc., Texas) purified by gel filtration and analyzed by mass spectroscopy, were obtained in lyophilized form. […] The stock solution was syringe filter-sterilized through a 0.2 μm pore filter and spectrophotometrically analyzed (absorbance at 260 and 280 nm) to determine the concentration, and frozen in aliquots at −20° C. […]
(§4) Cells were harvested in Trizol (Gibco BRL, Gaithersburg, Md.) and stored at −70° C. […] RNA solutions were measured by spectrophotometer readings at 260 nm and 280 nm to determine concentration and purity. […]
(§5) Northern and western films as well as stained membranes and pictures of ethidium bromide-stained gels were digitally scanned and analyzed by densitometry. […]

CAT mRNA = experiment: Northern blot analysis of antioxidant enzyme mRNA: CAT; assay type: cell-based, human; conditions: 100 μM pTT, 8-72 hours
Method: as §2, §3, §4, §5

[1] = system: primary human newborn dermal fibroblasts; experiment: MTS viability assay; assay type: cell-based; conditions: 100 μM pTT
Excerpt: The CellTiter 96 Aqueous One Solution Cell Proliferation Assay, a version of the MTT assay, (Promega Corp., Madison, Wis.) is generally used as a eukaryotic cell viability and proliferation assay.^180 It has also been used to measure mitochondrial dysfunction,^181 because the assay measures the reduction of a tetrazolium compound [3-(4,5-dimethylthiazol-2-yl)-5-(-3-carboxymethoxyphenyl)-2-(4-sulfophenyl)-2H-tetrazolium] to formazan in viable mitochondria. The MTS assay utilizes a water-soluble form of the tetrazolium reagent in the original MIT assay. The formazan product is measured by absorbance at 492 nm.
Equal numbers of cells were seeded into 96-well tissue culture plates, and paired wells were treated once with pTT or diluent control as described above. At 24, 48 and 72 hours cell viability was assayed using the MTS assay and an ELIZA plate reader (Tecan Spectra II Model F039002, Austria) to measure absorbance at 492 nm. The experiments were conducted in parallel with cell yield Coulter counts, using the same donor cells.
Cell yields of pTT-treated fibroblasts were compared to diluent using 2-way ANOVA and a total of four different experiments, to identify significant difference between treatment groups as a function of cell number and time. The parallel MTS assay also utilized the 2-way ANOVA, to compare changes in OD at 492 nm as a function of time and treatment modality.

[2] = 100 μM pTT, in vitro and in mouse models in vivo; cited from earlier work

| Substance | total p53 (DO-1) protein response, TO vs pTT (total p53 protein) | phospho-p53-ser15 response, TO vs pTT (phospho-p53 (Ser-15)) | p21 protein response, TO vs pTT (p21/Cip1/Waf1 protein) | melanoma tumors (melanoma tumors) | incidence of tumor formation (tumor formation) | SOD2 mRNA level compared to diluent (SOD2 mRNA) | CAT mRNA level compared to diluent (CAT mRNA) | cell viability (MTS formazan absorbance) vs diluent ([1]; 24-72 hours, 2-way ANOVA p=0.2588) | mitochondrial reductive activity per cell (MTS absorbance per Coulter-counted cell) ([1]; p=0.0093) | nucleotide excision DNA repair and UV resistance [2] |
| --- | --- | --- | --- | --- | --- | --- | --- | --- | --- | --- |
| pGTTAGGGTTAG (5' {P}, sugars by position and backbone not given here) [TO] | greater than to pTT | greater than to pTT | greater than to pTT | reduced melanoma tumors | decreased the incidence of tumor formation | – | – | – | – | – |
| 5′-phosphorylated thymidine dinucleotides [pTT] | – | – | – | – | – | no difference between pTT- and diluent-treated cells | remain unchanged | no significant decrease in cell viability | significant increase in mitochondrial reductive activity per cell | stimulates enhanced nucleotide excision DNA repair and resistance to subsequent UV irradiation |
